Test results as given in patent US8067614B2, “N-substituted (benzoimidazol-2-yl)phenylamines, processes for their preparation, their use as a medicament or diagnostic aid, and a medicament comprising them” (Sanofi-Aventis Deutschland GmbH, priority 2003, dated 2011).
Structures can show the parent of a compound that is named as a salt.

How the values were obtained:
[1] = mediated by alpha2 and I1 receptors; Ernsberger et al.; cited from earlier work
imidazoline I1 receptor = settings: Ernsberger et al, Eur. J. Pharmacol. 134, 1, 1987; cited from earlier work
[2] = system: adrenergic alpha2 receptor; settings: Ernsberger et al, Eur. J. Pharmacol. 134, 1, 1987; cited from earlier work
rNHE3 = biological target: T1, rNHE3 (Rattus norvegicus, UniProt P26433); assay: Recovery of intracellular pH after acidification (BCECF fluorescence) in LAP1 fibroblasts; assay type: cell-based
T1 construct: expressed in transfected cells; host or cells: LAP1 cells (fibroblasts)
T1 sequence (P26433 29-831): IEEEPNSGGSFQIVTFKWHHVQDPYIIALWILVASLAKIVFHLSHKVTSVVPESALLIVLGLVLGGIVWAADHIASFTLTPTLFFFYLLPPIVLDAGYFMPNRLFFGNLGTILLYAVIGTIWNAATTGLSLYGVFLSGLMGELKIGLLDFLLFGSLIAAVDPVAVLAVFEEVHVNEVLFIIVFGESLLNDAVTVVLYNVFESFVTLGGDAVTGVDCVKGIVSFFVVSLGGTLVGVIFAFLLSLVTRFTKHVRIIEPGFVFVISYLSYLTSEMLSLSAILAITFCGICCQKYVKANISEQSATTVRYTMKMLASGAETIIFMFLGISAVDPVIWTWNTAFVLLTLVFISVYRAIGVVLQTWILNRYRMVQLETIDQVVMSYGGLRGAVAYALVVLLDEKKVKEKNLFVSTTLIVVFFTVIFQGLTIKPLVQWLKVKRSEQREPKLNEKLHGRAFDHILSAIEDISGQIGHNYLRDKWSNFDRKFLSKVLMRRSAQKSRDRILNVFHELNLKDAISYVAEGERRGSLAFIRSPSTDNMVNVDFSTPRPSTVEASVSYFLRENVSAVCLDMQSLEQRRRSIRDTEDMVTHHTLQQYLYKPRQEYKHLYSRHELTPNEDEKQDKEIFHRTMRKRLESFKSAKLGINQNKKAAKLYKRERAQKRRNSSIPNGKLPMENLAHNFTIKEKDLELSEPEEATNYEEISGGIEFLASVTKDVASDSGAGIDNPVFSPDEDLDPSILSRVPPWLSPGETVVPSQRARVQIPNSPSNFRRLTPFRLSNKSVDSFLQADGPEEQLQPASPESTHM
Experimental: In this test, the recovery in the intracellular pH (pHi) after an acidification was ascertained, which is initiated if the NHE3 is capable of functioning, even under bicarbonate-free conditions. For this purpose, the pHi was determined using the pH-sensitive fluorescent dye BCECF (Calbiochem, the precursor BCECF-AM is employed). The cells (fibroblasts, LAP1 cells) were initially loaded with BCECF. The BCECF fluorescence was determined in a “Ratio Fluorescence Spectrometer” (Photon Technology International, South Brunswick, N.J., USA) at excitation wavelengths of 505 and 440 nm and an emission wavelength of 535 nm and converted into the pHi using calibration curves. The cells were incubated in NH4Cl buffer (pH 7.4) (NH4Cl buffer: 115 mM NaCl, 20 mM NH4Cl, 5 mM KCl, 1 mM CaCl2, 1 mM MgSO4, 20 mM Hepes, 5 mM glucose, 1 mg/ml BSA; a pH of 7.4 is adjusted with 1 M NaOH) even during the BCECF loading. The intracellular acidification was induced by adding 975 μl of an NH4Cl-free buffer (see below) to 25 μl aliquots of the cells incubated in NH4Cl buffer. The subsequent rate of pH recovery was recorded for three minutes. To calculate the inhibitory potency of the tested substances, the cells were initially investigated in buffers with which a complete or absolutely no pH recovery took place. For complete pH recovery (100%), the cells were incubated in Na^+-containing buffer (133.8 mM NaCl, 4.7 mM KCl, 1.25 mM CaCl2, 1.25 mM MgCl2, 0.97 mM Na2HPO4, 0.23 mM NaH2PO4, 5 mM Hepes, 5 mM glucose, a pH of 7.0 is adjusted with 1 M NaOH). To determine the 0% value, the cells were incubated in an Na^+-free buffer (133.8 mM choline chloride, 4.7 mM KCl, 1.25 mM CaCl2, 1.25 mM MgCl2, 0.97 mM K2HPO4, 0.23 mM KH2PO4, 5 mM Hepes, 5 mM glucose, a pH of 7.0 is adjusted with 1 M KOH). The substances to be tested were made up in the Na^+-containing buffer. The recovery of the intracellular pH at each test concentration of a substance was expressed as a percentage of the maximum recovery. The IC50 value for the particular substance for the individual NHE subtypes was calculated from the pH recovery percentages using the Sigma-Plot program.

NHE3 = settings: M. Donowitz et al., Am. J. Physiol. 276; cited from earlier work

Row | IC50 (rNHE3) | SMILES | other results
1 | – | Clc1cccc(Cl)c1N=C1NCCN1 [Clonidine] | blood pressure-lowering effect [1]: strong blood pressure-lowering effect; affinity for the imidazoline I1 receptor (imidazoline I1 receptor): high affinity; affinity for the adrenergic alpha2 receptor [2]: high affinity
2 | 8.3 µM | Clc1cccc(Cl)c1N(c1nc2ccccc2[nH]1)C1CCCC1 [Example 6, (1H-Benzoimidazol-2-yl)cyclopentyl(2,6-dichlorophenyl)amine] | –
3 | 9.3 µM | CC(C)N(c1nc2ccccc2[nH]1)c1c(Cl)cccc1Cl [Example 3, (1H-Benzoimidazol-2-yl)(2,6-dichlorophenyl)isopropylamine] | –
4 | 1.5 µM | C=CCN(c1nc2ccccc2[nH]1)c1c(Cl)cccc1Cl [Example 5, Allyl(1H-benzoimidazol-2-yl)(2,6-dichlorophenyl)amine] | –
5 | 3.3 µM | CN(c1nc2cc(F)ccc2[nH]1)c1c(Cl)cccc1Cl [Example 4, (2,6-Dichlorophenyl)(5-fluoro-1H-benzoimidazol-2-yl)methylamine] | –
6 | – | CC(C)[C@@H](CC[C@@H](C)[C@H]1CC[C@H]2[C@@H]3[C@H](O)C[C@H]4C[C@@H](NCCCNCCCCN)CC[C@]4(C)[C@H]3CC[C@]12C)OS(=O)(=O)O [Squalamine] | time to maximum strength of effect as NHE3 inhibitor (NHE3): only after one hour
7 | 0.57 µM | CCN(c1nc2ccccc2[nH]1)c1c(Cl)cccc1Cl [Example 1, (1H-Benzoimidazol-2-yl)(2,6-dichlorophenyl)ethylamine] | –
8 | 0.53 µM | CN(c1nc2ccccc2[nH]1)c1c(Cl)cccc1Cl [Example 2, (1H-Benzoimidazol-2-yl)(2,6-dichlorophenyl)methylamine hydrochloride] | –
